Structures are written as SMILES.

In assay [1] the test system is Rattus norvegicus. The experiment in a line: Dose producing 10% decrease of heart rate in anesthetized rats (SHR). It counts as functional.
The subject of assay [2] is Rattus norvegicus. The assay is described as follows: Dose producing 30% decrease of blood pressure in anesthetized rats (SHR). Format: functional.
Assay [3] concerns the target T1, Adenosine A2 receptor (Rattus norvegicus, UniProt P29276+P30543).
Description: Binding affinity against adenosine A2 receptor in rat striatal membranes using [3H]NECA as radioligand
The target of assay [4] is T2, Adenosine receptor A1 (Rattus norvegicus, UniProt P25099).
T2 sequence (P25099 whole entry): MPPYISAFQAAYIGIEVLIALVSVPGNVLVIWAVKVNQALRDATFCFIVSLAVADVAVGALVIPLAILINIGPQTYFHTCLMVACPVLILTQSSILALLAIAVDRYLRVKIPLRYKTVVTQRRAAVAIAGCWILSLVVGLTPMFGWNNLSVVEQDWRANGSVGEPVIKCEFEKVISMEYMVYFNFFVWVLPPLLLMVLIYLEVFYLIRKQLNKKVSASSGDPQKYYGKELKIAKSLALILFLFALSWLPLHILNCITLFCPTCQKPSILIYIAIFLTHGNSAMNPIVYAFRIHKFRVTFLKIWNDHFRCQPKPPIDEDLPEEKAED
Description: Binding affinity against adenosine A1 receptor in rat brain membranes using [3H]CHA as radioligand

In assay [5] the target is T1, Adenosine A2 receptor. The assay is described as follows: Binding affinity against adenosine A2 receptor in rat striatal membranes using [3H]NECA. Format: cell membranes, Striatum, Membrane.
Assay [6] concerns the target T2, Adenosine receptor A1. The experiment in a line: Binding affinity against adenosine A1 receptor in rat brain membranes using [3H]-CHA. Format: cell membranes.

In general, Ki refers to the equilibrium dissociation constant of an inhibitor or competing ligand from its target. A high value points to weaker binding. In the assay on Rattus norvegicus [1], `Nc1nc(Nc2ccccc2)nc2c1ncn2[C@@H]1O[C@H](CO)[C@@H](O)[C@H]1O` showed an ED10 of more than 100 µg/kg. In the assay on Rattus norvegicus [2], the ED30 was found to be 5.82 µg/kg. On Adenosine A2 receptor [3], this compound showed a Ki of 0.107 µM.

In the assay on Rattus norvegicus [1], `COc1cc(OC)cc(C(CNc2ncnc3c2ncn3[C@@H]2O[C@H](CO)[C@@H](O)[C@H]2O)c2ccccc2C)c1` (some centres not stated) registered an ED10 of more than 100 µg/kg. Also, the ED30 in the assay with Rattus norvegicus [2] was found to be 12.1 µg/kg. The compound also showed a Ki on Adenosine receptor A1 [4] of 0.103 µM.

Compound `Nc1nc(C#CCCO)nc2c1ncn2[C@@H]1O[C@H](CO)[C@@H](O)[C@H]1O` showed an ED10 in the assay on Rattus norvegicus [1] of 15.3 µg/kg. This compound registered an ED30 in the assay with Rattus norvegicus [2] of 2.53 µg/kg. The inhibition constant (Ki) turned out to be 0.0814 µM on Adenosine receptor A1 [4] and 0.0401 µM at Adenosine A2 receptor [3].

For `CCCCCCC#Cc1nc(N)c2ncn([C@@H]3O[C@H](CO)[C@@H](O)[C@H]3O)c2n1`, the ED10 in the assay on Rattus norvegicus [1] is more than 100 µg/kg. Moreover, the ED30 with Rattus norvegicus [2] came out at 0.34 µg/kg. Besides, the figures for the Ki on Adenosine receptor A1 [4] and on Adenosine A2 receptor [3] were 0.202 µM and 0.0121 µM, respectively.

In turn, `Nc1nc(C#CCO)nc2c1ncn2[C@@H]1O[C@H](CO)[C@@H](O)[C@H]1O` yielded an ED10 in the assay with Rattus norvegicus [1] of 1.19 µg/kg. The ED30 with Rattus norvegicus [2] was 0.95 µg/kg. Moreover, the results for the inhibition constant Ki at Adenosine receptor A1 [4] and at Adenosine A2 receptor [3] were 0.0101 µM and 0.0205 µM, respectively.

`CCCCCC#Cc1nc(N)c2ncn([C@@H]3O[C@H](CO)[C@@H](O)[C@H]3O)c2n1` registered an ED10 in the assay on Rattus norvegicus [1] of more than 100 µg/kg. The same compound gave an ED30 in the assay on Rattus norvegicus [2] of 0.14 µg/kg. The Ki at Adenosine receptor A1 [4] amounted to 0.17 µM; at Adenosine A2 receptor [3], 0.0054 µM.

`C[Si](C)(C)C#Cc1nc(N)c2ncn([C@@H]3O[C@H](CO)[C@@H](O)[C@H]3O)c2n1` had an ED10 with Rattus norvegicus [1] of more than 100 µg/kg. In the assay with Rattus norvegicus [2], this compound registered an ED30 of 1.15 µg/kg. The Ki on Adenosine receptor A1 [4] amounted to 0.0698 µM; on Adenosine A2 receptor [3], 0.63 µM.

Compound `CCCC#Cc1nc(N)c2ncn([C@@H]3O[C@H](CO)[C@@H](O)[C@H]3O)c2n1` gave an ED10 with Rattus norvegicus [1] of 41.5 µg/kg. Besides, the ED30 in the assay with Rattus norvegicus [2] was 0.18 µg/kg. For the same compound, the inhibitory constant (Ki) at Adenosine receptor A1 [4] turned out to be 0.154 µM; at Adenosine A2 receptor [3], 0.0075 µM.

In the assay with Rattus norvegicus [1], `CCCCCCCC#Cc1nc(N)c2ncn([C@@H]3O[C@H](CO)[C@@H](O)[C@H]3O)c2n1` came in with an ED10 of more than 100 µg/kg. Further, the ED30 with Rattus norvegicus [2] was 0.53 µg/kg. Also, the inhibition constant Ki was 0.257 µM at Adenosine receptor A1 [4] and 0.0337 µM at Adenosine A2 receptor [3].

`CCCCOCC#Cc1nc(N)c2ncn([C@@H]3O[C@H](CO)[C@@H](O)[C@H]3O)c2n1` had an ED10 with Rattus norvegicus [1] of 9.59 µg/kg. The ED30 in the assay with Rattus norvegicus [2] was found to be 1.06 µg/kg. In addition, the results for the Ki on Adenosine receptor A1 [4] and at Adenosine A2 receptor [3] were 0.0185 µM and 0.0106 µM, respectively.

In the assay on Rattus norvegicus [1], `CCOCCCC#Cc1nc(N)c2ncn([C@@H]3O[C@H](CO)[C@@H](O)[C@H]3O)c2n1` yielded an ED10 of more than 100 µg/kg. Besides, in the assay on Rattus norvegicus [2], the ED30 came out at 1.42 µg/kg. The inhibition constant Ki on Adenosine receptor A1 [4] turned out to be 0.244 µM; at Adenosine A2 receptor [3], 0.0128 µM.

The compound `COCC#Cc1nc(N)c2ncn([C@@H]3O[C@H](CO)[C@@H](O)[C@H]3O)c2n1` gave an ED10 in the assay on Rattus norvegicus [1] of 44.2 µg/kg. Further, the ED30 in the assay on Rattus norvegicus [2] was 23.8 µg/kg. The inhibitory constant (Ki) worked out at 0.0381 µM at Adenosine receptor A1 [4] and 0.0881 µM at Adenosine A2 receptor [3].

Regarding `CCCCCCCCC#Cc1nc(N)c2ncn([C@@H]3O[C@H](CO)[C@@H](O)[C@H]3O)c2n1`, in the assay on Rattus norvegicus [1], the ED10 is more than 100 µg/kg. In the assay on Rattus norvegicus [2], this compound registered an ED30 of 0.46 µg/kg. In addition, the figures for the inhibition constant Ki on Adenosine receptor A1 [4] and on Adenosine A2 receptor [3] were 0.232 µM and 0.0328 µM, respectively.

In the assay on Rattus norvegicus [1], `CCC#Cc1nc(N)c2ncn([C@@H]3O[C@H](CO)[C@@H](O)[C@H]3O)c2n1` returned an ED10 of 18.4 µg/kg. The ED30 in the assay on Rattus norvegicus [2] is 0.48 µg/kg. The Ki on Adenosine receptor A1 [4] is 0.186 µM; at Adenosine A2 receptor [3], 0.0212 µM.

In turn, `CCCCCCCCOCCC#Cc1nc(N)c2ncn([C@@H]3O[C@H](CO)[C@@H](O)[C@H]3O)c2n1` displayed an ED10 with Rattus norvegicus [1] of more than 100 µg/kg. The same compound showed an ED30 in the assay with Rattus norvegicus [2] of 9.16 µg/kg. For the same compound, the results for the inhibition constant Ki on Adenosine receptor A1 [4] and at Adenosine A2 receptor [3] were 1.5 µM and 0.307 µM, respectively.

Consider `CCCCCCC#Cc1nc(N)c2[nH]cnc2n1`, for which the ED10 in the assay on Rattus norvegicus [1] was more than 100 µg/kg. The ED30 in the assay with Rattus norvegicus [2] was more than 100 µg/kg. Further, the Ki at Adenosine receptor A1 [4] and on Adenosine A2 receptor [3] was more than 0.567 µM in each case.

Turning to `CCCCC#Cc1nc(N)c2ncn([C@@H]3O[C@H](CO)[C@@H](O)[C@H]3O)c2n1`, the ED10 in the assay with Rattus norvegicus [1] turned out to be 66.9 µg/kg. The compound also displayed an ED30 in the assay with Rattus norvegicus [2] of 0.11 µg/kg. At Adenosine receptor A1 [4], this compound came in with a Ki of 0.126 µM.

`CCCCCCCCc1nc(N)c2ncn(C3O[C@H](CO)[C@@H](O)[C@H]3O)c2n1` (some centres not stated): the ED10 with Rattus norvegicus [1] was more than 100 µg/kg. In the assay on Rattus norvegicus [2], this compound registered an ED30 of more than 100 µg/kg. Also, the Ki on Adenosine receptor A1 [4] and on Adenosine A2 receptor [3] was more than 0.567 µM in each case.

In the assay on Rattus norvegicus [1], `CCc1nc(N)c2ncn(C3O[C@H](CO)[C@@H](O)[C@H]3O)c2n1` (some centres not stated) returned an ED10 of more than 100 µg/kg. The compound further returned an ED30 in the assay with Rattus norvegicus [2] of more than 100 µg/kg. The Ki at Adenosine receptor A1 [4] and on Adenosine A2 receptor [3] was more than 0.567 µM in each case.

The compound `C#Cc1nc(N)c2ncn(C3O[C@H](CO)[C@@H](O)[C@H]3O)c2n1` (some centres not stated) yielded an ED10 in the assay with Rattus norvegicus [1] of 5.76 µg/kg. In addition, the ED30 with Rattus norvegicus [2] was found to be 5.91 µg/kg. Moreover, the Ki at Adenosine receptor A1 [4] turned out to be 0.272 µM; at Adenosine A2 receptor [3], 0.0376 µM.

In the assay on Rattus norvegicus [1], `CCCOCCC#Cc1nc(N)c2ncn(C3O[C@H](CO)[C@@H](O)[C@H]3O)c2n1` (some centres not stated) had an ED10 of 79.9 µg/kg. Also, the ED30 in the assay with Rattus norvegicus [2] turned out to be 1.1 µg/kg. Besides, the values for the Ki on Adenosine receptor A1 [4] and on Adenosine A2 receptor [3] were 0.128 µM and 0.0102 µM, respectively.

`CCCCCCCCCCC#Cc1nc(N)c2ncn(C3O[C@H](CO)[C@@H](O)[C@H]3O)c2n1` (some centres not stated): the results for the Ki on Adenosine A2 receptor [5] and at Adenosine receptor A1 [6] were 0.0446 µM and 0.267 µM, respectively. Besides, the ED10 in the assay on Rattus norvegicus [1] is more than 100 µg/kg. For the same compound, in the assay with Rattus norvegicus [2], the ED30 was 2.05 µg/kg.

Compound `CCCCCCC#Cc1nc(O)c2ncn(C3O[C@H](CO)[C@@H](O)[C@H]3O)c2n1` (some centres not stated) came in with an ED10 in the assay on Rattus norvegicus [1] of more than 100 µg/kg. Also, in the assay with Rattus norvegicus [2], the ED30 was more than 100 µg/kg. The Ki on Adenosine receptor A1 [4] and at Adenosine A2 receptor [3] was more than 0.567 µM each time.

For the compound `CC(=O)c1nc(N)c2ncn(C3O[C@H](CO)[C@@H](O)[C@H]3O)c2n1` (some centres not stated), in the assay on Rattus norvegicus [1], the ED10 is 50.3 µg/kg. The ED30 in the assay with Rattus norvegicus [2] worked out at 46.7 µg/kg. The Ki at Adenosine receptor A1 [4] and on Adenosine A2 receptor [3] was more than 0.567 µM throughout.

Consider `CCCCCC/C=C\c1nc(N)c2ncn(C3O[C@H](CO)[C@@H](O)[C@H]3O)c2n1` (some centres not stated), for which, in the assay on Rattus norvegicus [1], the ED10 was more than 100 µg/kg. In the assay on Rattus norvegicus [2], this compound yielded an ED30 of 5 µg/kg. Besides, the Ki on Adenosine receptor A1 [4] was more than 0.567 µM; on Adenosine A2 receptor [3] it was 0.15 µM.

With `CCCCCCC#Cc1nc2c(N)ncnc2n1C1O[C@H](CO)[C@@H](O)[C@H]1O` (some centres not stated), in the assay with Rattus norvegicus [1], the ED10 is more than 100 µg/kg. The compound further returned an ED30 in the assay with Rattus norvegicus [2] of more than 100 µg/kg. The Ki at Adenosine receptor A1 [4] and at Adenosine A2 receptor [3] was more than 0.567 µM each time.

For `CCCCCCC#Cc1ncnc2c1ncn2C1O[C@H](CO)[C@@H](O)[C@H]1O` (some centres not stated), the ED10 in the assay with Rattus norvegicus [1] is more than 100 µg/kg. Further, the ED30 with Rattus norvegicus [2] is more than 100 µg/kg. The Ki on Adenosine receptor A1 [4] and on Adenosine A2 receptor [3] was more than 0.567 µM throughout.

As to `CCNC(=O)[C@H]1O[C@@H](n2cnc3c(N)nc(NCCc4ccc(CCC(=O)O)cc4)nc32)[C@H](O)[C@@H]1O` [CGS-21680], the ED10 in the assay with Rattus norvegicus [1] is more than 100 µg/kg. This compound also displayed an ED30 with Rattus norvegicus [2] of 0.83 µg/kg.

As for `OC[C@H]1O[C@@H](n2cnc3c(NC4CCCC4)ncnc32)[C@H](O)[C@@H]1O` [N6-CYCLOPENTYLADENOSINE], in the assay with Rattus norvegicus [1], the ED10 worked out at 0.14 µg/kg. In addition, in the assay on Rattus norvegicus [2], the ED30 was 0.5 µg/kg. For the same compound, the Ki at Adenosine A2 receptor [3] worked out at 0.421 µM.

In the assay on Rattus norvegicus [1], `CCNC(=O)[C@H]1O[C@@H](n2cnc3c(N)ncnc32)[C@H](O)[C@@H]1O` [NECA] had an ED10 of 0.35 µg/kg. The compound further registered an ED30 in the assay with Rattus norvegicus [2] of 0.19 µg/kg.

The values are drawn from ChEMBL document CHEMBL1126140, “Nucleosides and nucleotides. 103. 2-Alkynyladenosines: a novel class of selective adenosine A2 receptor agonists with potent antihypertensive effects” (J Med Chem, 1992).
